Laboratory results as given in the supplement of paper PMC13380429.

Experiments:
Conditions in all cases: 72 h
Vero E6 [1] = test: drug sensitivity score (DSS) for viability; higher = more toxic; extreme values may be limits of the assay
Caco-2 [2] = test: as above
HepG2 [3] = test: as above
Calu-3 [4] = test: as above
U2OS [5] = test: as above
Vero E6 [6] = test: cell viability relative to DMSO; higher = less toxic
Caco-2 [7] = test: as above
HepG2 [8] = test: as above
Calu-3 [9] = test: as above
U2OS [10] = test: as above
Vero E6 [11] = test: relative viability EC50 (midpoint between 100% and the lowest measured viability); higher = less toxic
Caco-2 [12] = test: as above
HepG2 [13] = test: as above
Calu-3 [14] = test: as above
U2OS [15] = test: as above

SMILES	drug sensitivity score (Vero E6 [1])	drug sensitivity score (Caco-2 [2])	drug sensitivity score (HepG2 [3])	drug sensitivity score (Calu-3 [4])	drug sensitivity score (U2OS [5])	cell viability (Vero E6 [6]; 1 nM)	cell viability (Vero E6 [6]; 10 nM)	cell viability (Vero E6 [6]; 100 nM)	cell viability (Vero E6 [6]; 1000 nM)	cell viability (Vero E6 [6]; 10000 nM)	cell viability (Caco-2 [7]; 1 nM)	cell viability (Caco-2 [7]; 10 nM)	cell viability (Caco-2 [7]; 100 nM)	cell viability (Caco-2 [7]; 1000 nM)	cell viability (Caco-2 [7]; 10000 nM)	cell viability (HepG2 [8]; 1 nM)	cell viability (HepG2 [8]; 10 nM)	cell viability (HepG2 [8]; 100 nM)	cell viability (HepG2 [8]; 1000 nM)	cell viability (HepG2 [8]; 10000 nM)	cell viability (Calu-3 [9]; 1 nM)	cell viability (Calu-3 [9]; 10 nM)	cell viability (Calu-3 [9]; 100 nM)	cell viability (Calu-3 [9]; 1000 nM)	cell viability (Calu-3 [9]; 10000 nM)	cell viability (U2OS [10]; 1 nM)	cell viability (U2OS [10]; 10 nM)	cell viability (U2OS [10]; 100 nM)	cell viability (U2OS [10]; 1000 nM)	cell viability (U2OS [10]; 10000 nM)	relative viability EC50 (Vero E6 [11])	relative viability EC50 (Caco-2 [12])	relative viability EC50 (HepG2 [13])	relative viability EC50 (Calu-3 [14])	relative viability EC50 (U2OS [15])
O=C1c2cccc(O)c2C(=O)c2c(O)cc(CO)cc21 [aloe-emodin]	0	0	0	0	0	103%	104%	101%	102%	98.5%	99.3%	104%	98.8%	92.4%	91.8%	95%	100%	90.6%	105%	95.2%	93.4%	92.5%	103%	97.8%	97.6%	97%	98%	98.6%	96.9%	102%	> 10 µM	> 10 µM	> 10 µM	> 10 µM	> 10 µM
NC(=O)CCCCn1ccc(/N=C(\N)NCC(F)(F)F)n1	0	0	0	0	0	106%	103%	104%	102%	99.7%	98.8%	97.8%	104%	92.6%	97.6%	103%	97.7%	98.1%	105%	105%	110%	96.5%	107%	99.4%	102%	98.8%	104%	104%	99.9%	99.5%	> 10 µM	> 10 µM	> 10 µM	> 10 µM	> 10 µM
CC[N+](C)(CC)CCOC(=O)C1c2ccccc2Oc2ccccc21 [methantheline]	0	0	0	0	0	95.3%	97%	94.4%	93.2%	93.8%	91.6%	108%	89.1%	99%	96.3%	102%	88.7%	97.9%	79.8%	97.5%	99.9%	96.2%	103%	106%	88.9%	99.1%	100%	100%	104%	97.8%	> 10 µM	> 10 µM	> 10 µM	> 10 µM	> 10 µM
CCCCC(=O)O[C@H]1CC[C@H]2[C@@H]3CCc4cc(O)ccc4[C@H]3CC[C@]12C [ESTRADIOL VALERATE]	0	0.1	0	0.6	0	101%	102%	103%	99.5%	100%	104%	94.6%	97%	105%	85.8%	109%	106%	101%	97.6%	108%	99.8%	104%	96.4%	97.8%	83.8%	106%	108%	103%	106%	96.5%	> 10 µM	> 10 µM	> 10 µM	> 10 µM	> 10 µM
CC(=O)OCC(CCn1cnc2cnc(N)nc21)COC(C)=O [famciclovir]	0	1.4	0	0	0	99.7%	102%	98.7%	96.9%	100%	91.3%	101%	105%	87.4%	82.8%	103%	98.4%	103%	96.8%	100%	104%	99.4%	91.1%	106%	93.9%	100%	104%	95%	102%	95.5%	> 10 µM	> 10 µM	> 10 µM	> 10 µM	> 10 µM
Nc1c(S(=O)(=O)O)cc(Nc2cccc3ccccc23)c2c1C(=O)c1ccccc1C2=O	0	0.1	1	0	0.8	94.2%	98.3%	97.3%	93.7%	86.7%	91.3%	97.8%	101%	89.7%	90.1%	103%	91.1%	91.1%	90%	86.8%	101%	95.8%	91.5%	101%	93.2%	94.1%	98.4%	95.3%	95.4%	81.8%	> 10 µM	> 10 µM	> 10 µM	> 10 µM	> 10 µM
O=C(c1ccc(F)cc1)N1CCC[C@H](c2nc(-c3ccc(F)cc3)no2)C1	0	0	0	1.2	0	98.3%	93.5%	94.7%	93.9%	95.5%	101%	94.3%	91.8%	99.7%	87.9%	93.7%	99.4%	93%	96%	91.1%	90%	100%	85.3%	98.2%	75.5%	94%	101%	99.9%	98.8%	91.7%	> 10 µM	> 10 µM	> 10 µM	> 10 µM	> 10 µM
NCCS(=O)(=O)O [taurine]	0	0	0	0	0	94.5%	95.3%	95.1%	89.1%	106%	94.9%	99.3%	98%	95.6%	103%	110%	99.4%	101%	102%	104%	100%	106%	102%	97.6%	101%	94.4%	100%	98.9%	103%	101%	> 10 µM	> 10 µM	> 10 µM	> 10 µM	> 10 µM
Clc1ccc(C(OCCN2CCCCC2)c2ccccc2)cc1 (stereo not given) [cloperastine]	0.3	0.3	0.6	0	0	93.7%	96.4%	100%	97%	86.6%	99%	94.9%	114%	116%	79.9%	111%	109%	115%	96.4%	84.1%	101%	93.5%	129%	100%	100%	99.4%	96.7%	97.1%	99.6%	95.4%	> 10 µM	> 10 µM	> 10 µM	> 10 µM	> 10 µM
CCCCCN(CCCOC)C(=O)[C@@H](CCC(=O)O)NC(=O)c1ccc(Cl)c(Cl)c1 [dexloxiglumide]	0	0.1	0	0	0	89.4%	97.8%	91.1%	96.1%	109%	92.1%	82.1%	87.5%	86.9%	107%	94.5%	105%	89.6%	104%	108%	100%	93.3%	96.4%	95.7%	93%	92.2%	92.1%	99.5%	91.9%	104%	> 10 µM	> 10 µM	> 10 µM	> 10 µM	> 10 µM
NS(=O)(=O)Cc1noc2ccccc12 [zonisamide]	0	0	0	0	0	101%	93.3%	98.5%	93.8%	106%	84.9%	97.9%	96.1%	96.3%	106%	110%	102%	98.2%	94.5%	102%	95.1%	97.9%	100%	115%	88.1%	94.1%	93.9%	92.4%	98.4%	102%	> 10 µM	> 10 µM	> 10 µM	> 10 µM	> 10 µM
CCC(CC)n1ccc2c(C(=O)NCc3c(C)cc(C)[nH]c3=O)cc(C#N)cc21 [EI1]	0	0	0	0	0	105%	100%	107%	97.5%	104%	105%	95.1%	97.2%	95.4%	93.6%	90.7%	92.3%	101%	93.7%	97.6%	94.2%	96.6%	101%	109%	102%	98.7%	99.4%	93.8%	96.1%	101%	> 10 µM	> 10 µM	> 10 µM	> 10 µM	> 10 µM
CCN(CC)C(=O)c1ccc(C2=CC3(CCNCC3)Oc3cccc(O)c32)cc1 [ADL5859]	0	0	0	0	0	94.1%	104%	94.9%	98.5%	108%	93%	99.8%	91.9%	97.3%	110%	103%	99.5%	104%	100%	101%	92.9%	96.9%	91.8%	105%	105%	95.4%	98.2%	100%	103%	104%	> 10 µM	> 10 µM	> 10 µM	> 10 µM	> 10 µM
OCCc1ccc(OCCn2ccnc2)cc1 [MR-948]	0	0	0	0	0	90%	98.6%	94.8%	95%	107%	94.9%	93.1%	86.3%	108%	99.8%	89.2%	104%	96.7%	106%	106%	96.4%	99%	97.6%	105%	104%	99.4%	99.9%	98.6%	96%	96.8%	> 10 µM	> 10 µM	> 10 µM	> 10 µM	> 10 µM
